Experimental data taken from paper PMC7734235 (Computational and Structural Biotechnology Journal, 2020).

Target: T1, Rab5 (Homo sapiens, UniProt P20339)
T1 sequence (P20339 1-215): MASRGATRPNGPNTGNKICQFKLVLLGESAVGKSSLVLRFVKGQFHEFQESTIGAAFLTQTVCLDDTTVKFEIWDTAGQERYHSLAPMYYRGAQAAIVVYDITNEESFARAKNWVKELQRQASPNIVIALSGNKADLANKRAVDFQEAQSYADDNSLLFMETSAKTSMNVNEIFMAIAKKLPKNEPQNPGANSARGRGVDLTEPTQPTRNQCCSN
Test: intrinsic fluorescence titration
Format: binding

Kd: 350 ± 30 nM
Compound: C=C1CC[C@@H]2[C@](C)(CO[C@@H]3O[C@H](CO)[C@@H](O)[C@H](O)[C@H]3O)CCC[C@@]2(C)[C@@H]1CCC1=CCOC1=O [NAP, Neoandrographolide]
